Results on eight compounds are retold here after PubChem BioAssay AID248 (DTP/NCI, 2004).

Molecules are shown by their SMILES. Toxic doses and inconclusive results are not listed.

This assay deals with L1210 leukemia ip in BDF1 mice, survival T/C. As to the kind of experiment: NCI In Vivo Anticancer Drug Screen. Data for tumor model L1210 Leukemia (intraperitoneal) in B6D2F1 (BDF1) mice. The note with it: endpoint: mean survival time, higher = longer survival. The gist of the method:
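Transplanted-tumor mice were given test agent; controls received vehicle only. Survival readings from the two groups were divided (treated over control).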

`CCOC(OCC)c1nc(N)nc(N)c1-c1ccc(Cl)c(Cl)c1`: the T/C runs as follows: (dose: 11.0 mg/kg/injection, schedule: Q01DX009 (ip), vehicle: other) 98 % of control; (dose: 22.5 mg/kg/injection, schedule: Q01DX009 (ip), vehicle: other) 101 % of control; (dose: 45.0 mg/kg/injection, schedule: Q01DX009 (ip), vehicle: other) 101 % of control; (dose: 89.0 mg/kg/injection, schedule: Q01DX009 (ip), vehicle: saline) 102 % of control; (dose: 90.0 mg/kg/injection, schedule: Q01DX009 (ip), vehicle: other) 115 % of control; (dose: 100.0 mg/kg/injection, schedule: Q01DX001 (ip), vehicle: saline) 100 % of control. Also, the T/C is 119 % of control (dose: 134.0 mg/kg/injection, schedule: Q01DX009 (ip), vehicle: saline); 107 % of control (dose: 200.0 mg/kg/injection, schedule: Q01DX001 (ip), vehicle: saline); 101 % of control (dose: 300.0 mg/kg/injection, schedule: Q01DX009 (ip), vehicle: saline).
As to `CC(C)N=Cc1ccccc1O.CC(C)N=Cc1ccccc1O.[Zn]`, the T/C is 91 % of control (dose: 100.0 mg/kg/injection, schedule: Q01DX009 (ip), vehicle: saline sonified); 88 % of control (dose: 100.0 mg/kg/injection, schedule: Q04DX003 (ip), vehicle: Klucel (hydroxypropylcellulose) (HPC)); 92 % of control (dose: 200.0 mg/kg/injection, schedule: Q01DX009 (ip), vehicle: saline sonified); 89 % of control (dose: 200.0 mg/kg/injection, schedule: Q04DX003 (ip), vehicle: Klucel (hydroxypropylcellulose) (HPC)); 96 % of control (dose: 400.0 mg/kg/injection, schedule: Q01DX009 (ip), vehicle: saline sonified); 93 % of control (dose: 400.0 mg/kg/injection, schedule: Q04DX003 (ip), vehicle: Klucel (hydroxypropylcellulose) (HPC)).
Regarding `Cc1ccc2nc(NC(=O)N(CCCl)N=O)sc2c1`, the T/C was 103 % of control (dose: 53.0 mg/kg/injection, schedule: Q01DX009 (ip), vehicle: carboxymethylcellulose (CMC)); 113 % of control (dose: 80.0 mg/kg/injection, schedule: Q01DX009 (ip), vehicle: carboxymethylcellulose (CMC)); 150 % of control (dose: 118.0 mg/kg/injection, schedule: Q01DX001 (ip), vehicle: other); 193 % of control (dose: 118.0 mg/kg/injection, schedule: Q01DX006 (ip), vehicle: other); 114 % of control (dose: 120.0 mg/kg/injection, schedule: Q01DX009 (ip), vehicle: carboxymethylcellulose (CMC)); 157 % of control (dose: 180.0 mg/kg/injection, schedule: Q01DX001 (ip), vehicle: carboxymethylcellulose (CMC)). In addition, the T/C by setting is: (dose: 200.0 mg/kg/injection, schedule: Q01DX001 (ip), vehicle: carboxymethylcellulose (CMC)) 158 % of control; (dose: 266.0 mg/kg/injection, schedule: Q01DX006 (ip), vehicle: other) 98 % of control; (dose: 266.0 mg/kg/injection, schedule: Q01DX009 (ip), vehicle: carboxymethylcellulose (CMC)) 161 % of control; (dose: 400.0 mg/kg/injection, schedule: Q01DX001 (ip), vehicle: carboxymethylcellulose (CMC)) 170 % of control; (dose: 400.0 mg/kg/injection, schedule: Q01DX006 (ip), vehicle: other) 90 % of control.
For the compound `CC(=O)c1cc(F)ccc1O`, the T/C was 102 % of control (dose: 100.0 mg/kg/injection, schedule: Q04DX003 (ip), vehicle: saline with Tween-80); 97 % of control (dose: 200.0 mg/kg/injection, schedule: Q04DX003 (ip), vehicle: saline with Tween-80); 94 % of control (dose: 400.0 mg/kg/injection, schedule: Q04DX003 (ip), vehicle: saline with Tween-80).
On to `Oc1ccccc1C1=NCCN1`, for which the T/C is, setting by setting: (dose: 50.0 mg/kg/injection, schedule: Q04DX002 (ip), vehicle: Klucel (hydroxypropylcellulose) (HPC)) 102 % of control; (dose: 100.0 mg/kg/injection, schedule: Q04DX002 (ip), vehicle: Klucel (hydroxypropylcellulose) (HPC)) 95 % of control; (dose: 200.0 mg/kg/injection, schedule: Q04DX002 (ip), vehicle: Klucel (hydroxypropylcellulose) (HPC)) 91 % of control.
As for `C/C=C/C(=O)OCC` (tested in a mixture with another compound), the T/C is 97 % of control (dose: 50.0 mg/kg/injection, schedule: Q01DX009 (ip), vehicle: saline with Tween-80); 93 % of control (dose: 100.0 mg/kg/injection, schedule: Q01DX009 (ip), vehicle: saline with Tween-80); 93 % of control (dose: 200.0 mg/kg/injection, schedule: Q01DX009 (ip), vehicle: saline with Tween-80).
`COc1cccc(NC(=S)/C(=C(/[O-])c2ccc([N+](=O)[O-])cc2)[n+]2ccccc2)c1`: the T/C was 97 % of control (dose: 100.0 mg/kg/injection, schedule: Q01DX009 (ip), vehicle: Klucel (hydroxypropylcellulose) (HPC)); 98 % of control (dose: 200.0 mg/kg/injection, schedule: Q01DX009 (ip), vehicle: Klucel (hydroxypropylcellulose) (HPC)); 94 % of control (dose: 400.0 mg/kg/injection, schedule: Q01DX009 (ip), vehicle: Klucel (hydroxypropylcellulose) (HPC)).
Consider `CS(N)(=O)=O`, for which the T/C was 111 % of control (dose: 12.5 mg/kg/injection, schedule: Q04DX002 (ip), vehicle: saline); 96 % of control (dose: 25.0 mg/kg/injection, schedule: Q04DX002 (ip), vehicle: saline); 96 % of control (dose: 50.0 mg/kg/injection, schedule: Q04DX002 (ip), vehicle: saline).
